# Results: ChEMBL document CHEMBL5113537, “Discovery of β-Arrestin-Biased 25CN-NBOH-Derived 5-HT2A Receptor Agonists” (J Med Chem, 2022)
# Active and inactive are the calls of the source. The rule behind the calls is not given here.
# Experiments:
# Homo sapiens [1] = species: Homo sapiens; test: (§1) Selectivity ratio of EC50 for agonist activity at human 5HT2A S159A mutant transfected in HEK293T cells assessed as mini Galphaq recruitment measured for 2 hrs by luminescent assay to EC50 for agonist activity at human wild type 5HT2A transfected in HEK293T cells assessed as mini Galphaq recruitment measured for 2 hrs by luminescent assay; type: cell-based
# Homo sapiens [2] = species: Homo sapiens; test: as §1, with “assessed as beta arrestin-2 recruitment measured” for “assessed as mini Galphaq recruitment measured”, “type 5HT2A receptor transfected in” for “type 5HT2A transfected in”; type: cell-based
# [3] = molecular target: 5-hydroxytryptamine receptor 2A (Homo sapiens) (UniProt P28223); test: Agonist activity at wild type human 5HT2A transfected in HEK293T cells assessed as beta arrestin-2 recruitment measured for 2 hrs by luminescent assay; type: functional, cell-based; conditions: filed as agonist
# Sequence of 5-hydroxytryptamine receptor 2A (Homo sapiens) (P28223 whole entry): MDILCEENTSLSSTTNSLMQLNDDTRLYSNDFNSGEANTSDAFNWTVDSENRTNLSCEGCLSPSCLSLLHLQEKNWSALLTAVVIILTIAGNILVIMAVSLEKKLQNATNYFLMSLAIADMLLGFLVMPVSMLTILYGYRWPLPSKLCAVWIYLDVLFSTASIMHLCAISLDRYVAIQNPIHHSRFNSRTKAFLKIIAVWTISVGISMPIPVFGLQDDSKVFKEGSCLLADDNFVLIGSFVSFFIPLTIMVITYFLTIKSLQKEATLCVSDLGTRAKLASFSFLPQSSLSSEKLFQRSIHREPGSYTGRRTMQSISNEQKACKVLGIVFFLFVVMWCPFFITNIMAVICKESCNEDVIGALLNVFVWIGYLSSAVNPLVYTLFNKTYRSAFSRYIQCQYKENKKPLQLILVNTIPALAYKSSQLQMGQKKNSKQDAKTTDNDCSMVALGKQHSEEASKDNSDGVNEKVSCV
Compound,Ratio EC50 (Homo sapiens [1]),Ratio EC50 (Homo sapiens [2]),Activity [3]
COc1cc(CCNCc2cccc(O)c2)c(OC)cc1Br,12,15,
COc1cc(CCNCc2ccccc2F)c(OC)cc1C#N,,3,
COc1cc(CCNC2COc3ccccc32)c(OC)cc1C#N (racemic),,,Active
